Molecular target: T1, PD-1/PD-L1 protein/protein interaction (recombinant human PD-L1 protein (19-238), recombinant human PD-1 protein (25-167)) (Homo sapiens, UniProt Q9NZQ7)
T1 construct: Recombinant human PD-L1 protein (19-238) with a His-tag at the C-terminus; purchased AcroBiosystems PD1-H5229 (PD-L1-His); PD1-H5257 (PD-1-Fc)
Assay: PD-1/PD-L1 Homogeneous Time-Resolved Fluorescence (HTRF) Binding Assay
Details: 25° C., PBS buffer (pH 7.4), 40 minutes preincubation with inhibitors
Method: The assays were conducted in a standard black 384-well polystyrene plate with a final volume of 20 μL. Inhibitors were first serially diluted in DMSO and then added to the plate wells before the addition of other reaction components. The final concentration of DMSO in the assay was 1%. The assays were carried out at 25° C. in the PBS buffer (pH 7.4) with 0.05% Tween-20 and 0.1% BSA. Recombinant human PD-L1 protein (19-238) with a His-tag at the C-terminus was purchased from AcroBiosystems (PD1-H5229). Recombinant human PD-1 protein (25-167) with Fc tag at the C-terminus was also purchased from AcroBiosystems (PD1-H5257). PD-L1 and PD-1 proteins were diluted in the assay buffer and 10 μL was added to the plate well. Plates were centrifuged and proteins were preincubated with inhibitors for 40 minutes. The incubation was followed by the addition of 10 μL of HTRF detection buffer supplemented with Europium cryptate-labeled anti-human IgG (PerkinElmer-AD0212) specific for Fc and anti-His antibody conjugated to SureLight®-Allophycocyanin (APC, PerkinElmer-AD0059H). After centrifugation, the plate was incubated at 25° C. for 60 min. before reading on a PHERAstar FS plate reader (665 nm/620 nm ratio). Final concentrations in the assay were […], 10 nM PD-L1, 1 nM europium anti-human IgG and 20 nM anti-His-Allophycocyanin. IC50 determination was performed by fitting the curve of percent control activity versus the log of the inhibitor concentration using the GraphPad Prism 5.0 software.

T1 sequence (Q9NZQ7 19-238): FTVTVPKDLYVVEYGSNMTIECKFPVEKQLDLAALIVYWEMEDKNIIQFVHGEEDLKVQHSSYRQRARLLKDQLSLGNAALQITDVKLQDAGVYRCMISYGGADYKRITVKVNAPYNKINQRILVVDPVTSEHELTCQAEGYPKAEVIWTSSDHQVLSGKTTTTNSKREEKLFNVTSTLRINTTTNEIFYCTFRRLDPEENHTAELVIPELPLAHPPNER

IC50, ≤ 0.01 µM:
Cc1c(Nc2nccc3cc(CN4CC[C@@H](O)C4)cnc23)cccc1-c1cccc(-c2nc3c(o2)CN(C(=O)CN(C)C)C3)c1C [Example 37, (R)-2-(dimethylamino)-1-(2-(3′-((3-((3-hydroxypyrrolidin-1-yl)methyl)-1,7-naphthyridin-8-yl)amino)-2,2′-dimethyl-[1,1′-biphenyl]-3-yl)-4,6-dihydro-5H-pyrrolo[3,4-d]oxazol-5-yl)ethan-1-one]
Cc1c(NC(=O)c2nc3c(n2C)CCN(C)C3)cccc1-c1cccc(Nc2nccc3cc(CN4CC[C@@H](C(=O)O)C4)cnc23)c1C [Example 46, (R)-1-((8-(3′-(1,5-dimethyl-4,5,6,7-tetrahydro-1H-imidazo[4,5-c]pyridine-2-carboxamido)-2,2′-dimethylbiphenyl-3-ylamino)-1,7-naphthyridin-3-yl)methyl)pyrrolidine-3-carboxylic acid]
Cc1c(Nc2nccc3cc(CN4CCCC4)cnc23)cccc1-c1cccc(Nc2nccc3cc(CN4CC[C@@H](O)C4)cnc23)c1C [Example 73, (R)-1-((8-((2,2′-dimethyl-3′-((3-(pyrrolidin-1-ylmethyl)-1,7-naphthyridin-8-yl)amino)-[1,1′-biphenyl]-3-yl)amino)-1,7-naphthyridin-3-yl)methyl)pyrrolidin-3-ol]
Cc1c(Nc2nccc3cc(CN4CC[C@@H](O)C4)cnc23)cccc1-c1cccc(Nc2nccc3cc(CN4CC[C@@H](C(=O)O)C4)cnc23)c1C [Example 9, (R)-1-((8-((3′-((3-(((R)-3-hydroxypyrrolidin-1-yl)methyl)-1,7-naphthyridin-8-yl)amino)-2,2′-dimethyl-[1,1′-biphenyl]-3-yl)amino)-1,7-naphthyridin-3-yl)methyl)pyrrolidine-3-carboxylic acid]
Cc1c(Nc2nccc3cc(CN[C@H]4CCC[C@@H]4O)cnc23)cccc1-c1cccc(NC(=O)c2nc3c(n2C)CCN(C[C@H]2CC[C@H](C(=O)O)CC2)C3)c1Cl [Example 51, trans-4-((2-(2-chloro-3′-(3-(((1S,2S)-2-hydroxycyclopentylamino)methyl)-1,7-naphthyridin-8-ylamino)-2′-methylbiphenyl-3-ylcarbamoyl)-1-methyl-6,7-dihydro-1H-imidazo[4,5-c]pyridin-5(4H)-yl)methyl)cyclohexanecarboxylic acid]
Cc1c(Nc2nccc3cc(CN4CC[C@@H](C(=O)O)C4)cnc23)cccc1-c1cccc(NC(=O)c2ccc(CN3CC[C@@H](O)C3)cn2)c1Cl [Example 7, (R)-1-((8-((2′-chloro-3′-(5-(((R)-3-hydroxypyrrolidin-1-yl)methyl)picolinamido)-2-methyl-[1,1′-biphenyl]-3-yl)amino)-1,7-naphthyridin-3-yl)methyl)pyrrolidine-3-carboxylic acid]
Cn1cc(CNCC(C)(C)O)cc(C(=O)Nc2cccc(-c3cccc(Nc4nccc5cc(CN6CC(C(=O)O)C6)cnc45)c3Cl)c2Cl)c1=O [Example 18, 1-((8-(2,2′-dichloro-3′-(5-((2-hydroxy-2-methylpropylamino)methyl)-1-methyl-2-oxo-1,2-dihydropyridine-3-carboxamido)biphenyl-3-ylamino)-1,7-naphthyridin-3-yl)methyl)azetidine-3-carboxylicacid]
Cc1c(Nc2nccc3cc(CN4CC[C@@H](O)C4)cnc23)cccc1-c1cccc(-c2nc3c(o2)CN(C(=O)CN2CC[C@H](C(=O)O)C2)C3)c1C [Example 40, (S)-1-(2-(2-(3′-((3-(((R)-3-hydroxypyrrolidin-1-yl)methyl)-1,7-naphthyridin-8-yl)amino)-2,2′-dimethyl-[1,1′-biphenyl]-3-yl)-4,6-dihydro-5H-pyrrolo[3,4-d]oxazol-5-yl)-2-oxoethyl)pyrrolidine-3-carboxylic acid]
Cc1c(NC(=O)c2nc3c(n2C)CCN(C[C@H]2CC[C@@H](C(=O)O)CC2)C3)cccc1-c1cccc(Nc2nccc3cc(CN4CC[C@@H](O)C4)cnc23)c1C [Example 99, Cis-4-((2-(3′-(3-(((R)-3-hydroxypyrrolidin-1-yl)methyl)-1,7-naphthyridin-8-ylamino)-2,2′-dimethylbiphenyl-3-ylcarbamoyl)-1-methyl-6,7-dihydro-1H-imidazo[4,5-c]pyridin-5(4H)-yl)methyl)cyclohexanecarboxylic acid]
Cc1c(Nc2nccc3cc(CN4CC[C@@](C)(C(=O)O)C4)cnc23)cccc1-c1cccc(NC(=O)c2nc3c(n2C)CCNC3)c1Cl [Example 45, (R)-1-((8-(2′-Chloro-2-methyl-3′-(1-methyl-4,5,6,7-tetrahydro-1H-imidazo[4,5-c]pyridine-2-carboxamido)biphenyl-3-ylamino)-1,7-naphthyridin-3-yl)methyl)-3-methylpyrrolidine-3-carboxylic acid]
Cc1c(Nc2nccc3cc(CN4CC[C@@H](O)C4)cnc23)cccc1-c1cccc(-c2nc3c(s2)CN(C(=O)CN2CC[C@@H](O)C2)C3)c1C [Example 86, 2-((R)-3-hydroxypyrrolidin-1-yl)-1-(2-(3′-((3-(((R)-3-hydroxypyrrolidin-1-yl)methyl)-1,7-naphthyridin-8-yl)amino)-2,2′-dimethyl-[1,1′-biphenyl]-3-yl)-4,6-dihydro-5H-pyrrolo[3,4-d]thiazol-5-yl)ethan-1-one]
Cc1c(Nc2nccc3cc(CN4CC[C@@H](O)C4)cnc23)cccc1-c1cccc(-c2nc3c(o2)CN(C(=O)CN2CC(C(=O)O)C2)C3)c1C [Example 39, (R)-1-(2-(2-(3′-((3-((3-hydroxypyrrolidin-1-yl)methyl)-1,7-naphthyridin-8-yl)amino)-2,2′-dimethyl-[1,1′-biphenyl]-3-yl)-4,6-dihydro-5H-pyrrolo[3,4-d]oxazol-5-yl)-2-oxoethyl)azetidine-3-carboxylic acid]
Cc1c(Nc2nccc3cc(CN4CC[C@H](O)C4)cnc23)cccc1-c1cccc(-c2nc3c(s2)CNCC3)c1C [Example 36, (S)-1-((8-((2,2′-dimethyl-3′-(4,5,6,7-tetrahydrothiazolo[5,4-c]pyridin-2-yl)-[1,1′-biphenyl]-3-yl)amino)-1,7-naphthyridin-3-yl)methyl)pyrrolidin-3-ol]
Cc1c(Nc2nccc3cc(CN4CC[C@@](C)(C(=O)O)C4)cnc23)cccc1-c1cccc(NC(=O)c2nc3c(n2C)CCN(C)C3)c1Cl [Example 33, (R)-1-((8-(2′-chloro-3′-(1,5-dimethyl-4,5,6,7-tetrahydro-1H-imidazo[4,5-c]pyridine-2-carboxamido)-2-methylbiphenyl-3-ylamino)-1,7-naphthyridin-3-yl)methyl)-3-methylpyrrolidine-3-carboxylic acid]
O=C(O)[C@@H]1CCN(Cc2cnc3c(Nc4cccc(-c5cccc(Nc6nccc7cc(CN8CC[C@H](O)C8)cnc67)c5Cl)c4Cl)nccc3c2)C1 [Example 82, (R)-1-((8-((2,2′-dichloro-3′-((3-(((S)-3-hydroxypyrrolidin-1-yl)methyl)-1,7-naphthyridin-8-yl)amino)-[1,1′-biphenyl]-3-yl)amino)-1,7-naphthyridin-3-yl)methyl)pyrrolidine-3-carboxylic acid]
Cc1c(Nc2nccc3cc(CN4CC[C@@H](O)C4)cnc23)cccc1-c1cccc(NC(=O)c2nc3c(n2C)CCN(CC[C@H]2CC[C@@H](C(=O)O)CC2)C3)c1Cl (single isomer, unassigned) [Example 53]
Cc1c(Nc2nccc3cc(CNCCO)cnc23)cccc1-c1cccc(NC(=O)c2ccc(CNCCO)cn2)c1Cl [Example 5, N-(2-chloro-3′-((3-(((2-hydroxyethyl)amino)methyl)-1,7-naphthyridin-8-yl)amino)-2′-methyl-[1,1′-biphenyl]-3-yl)-5-(((2-hydroxyethyl)amino)methyl)picolinamide]
Cc1c(Nc2nccc3cc(CN4CC[C@@H](O)C4)cnc23)cccc1-c1cccc(Nc2nccc3cc(CN4CC[C@@H](C(=O)N(C)C)C4)cnc23)c1C [Example 26, (R)-1-((8-(3′-(3-(((R)-3-hydroxypyrrolidin-1-yl)methyl)-1,7-naphthyridin-8-ylamino)-2,2′-dimethylbiphenyl-3-ylamino)-1,7-naphthyridin-3-yl)methyl)-N,N-dimethylpyrrolidine-3-carboxamide]
Cc1c(NC(=O)c2nc3c(n2C)CCN(CC[C@H]2CC[C@H](C(=O)O)CC2)C3)cccc1-c1cccc(Nc2nccc3cc(CN4CC[C@@H](O)C4)cnc23)c1Cl [Example 66, trans 4-(2-(2-(2′-chloro-3′-(3-(((R)-3-hydroxypyrrolidin-1-yl)methyl)-1,7-naphthyridin-8-ylamino)-2-methylbiphenyl-3-ylcarbamoyl)-1-methyl-6,7-dihydro-1H-imidazo[4,5-c]pyridin-5(4H)-yl)ethyl)cyclohexanecarboxylic acid]

Source: patent publication US12466822B2, “Heterocyclic compounds as immunomodulators” (Incyte Corporation, priority 2016, dated 2025)
